# From US4595678A, “N-substituted pseudo-aminosugars and pharmaceutical compositions containing same” (Takeda Chemical Industries, Ltd., priority 1982, dated 1986)
# Test system: α-glucoside hydrolase (α-glucosidase)
# Assay: α-glucoside hydrolase / α-glucosidase inhibitory activity, in words
# Assay type: biochemical
# Settings: found by the inventors
row,Compound,α-glucoside hydrolase suppressing / α-glucosidase inhibitory activity
1,N[C@H]1C[C@H](CO)[C@@H](O)[C@H](O)[C@H]1O [validamine],possesses a highly valuable action of suppressing the function of α-glucoside hydrolase

# Test system: α-glucoside hydrolase (α-glucosidase)
# Assay: not given
# Settings: earlier reports; cited from earlier work
row,Compound,α-glucoside hydrolase suppressing / α-glucosidase inhibitory activity
1,C[C@H]1O[C@H](O[C@@H]2[C@H](O)[C@H](O)[C@@H](O[C@@H]3[C@H](O)[C@@H](O)[C@@H](O[C@@H]4[C@H](O)[C@H](O)[C@@H](O[C@H]5O[C@@H](CO)[C@H](O)[C@H](O)[C@H]5O)O[C@@H]4CO)O[C@@H]3CO)O[C@H]2CO)[C@H](O)[C@@H](O)[C@@H]1N[C@H]1C=C(CO)[C@@H](O[C@H]2O[C@H](CO)[C@H](O[C@H]3O[C@H](C)[C@@H](N[C@H]4C=C(CO)[C@@H](O)[C@H](O)[C@H]4O)[C@H](O)[C@H]3O)[C@H](O)[C@H]2O)[C@H](O)[C@H]1O (stereo in doubt) [Trestatin A],far from being satisfactory
2,C[C@H]1O[C@H](O[C@H]2[C@H](O)[C@@H](O)[C@@H](O[C@H]3[C@H](O)[C@@H](O)C(O)O[C@@H]3CO)O[C@@H]2CO)[C@H](O)[C@@H](O)[C@@H]1N[C@H]1C=C(CO)[C@@H](O)[C@H](O)[C@H]1O (stereo partly shown) [Acarbose],far from being satisfactory
3,C[C@H]1O[C@H](O[C@H]2[C@H](O)[C@@H](O)[C@@H](O[C@H]3[C@H](O)[C@@H](O)[C@@H](O[C@H]4[C@H](O)[C@@H](O)[C@@H](O[C@H]5O[C@H](CO)[C@@H](O)[C@H](O)[C@H]5O)O[C@@H]4CO)O[C@@H]3CO)O[C@@H]2CO)[C@H](O)[C@@H](O)[C@@H]1N[C@H]1C=C(CO)[C@@H](O[C@H]2O[C@H](CO)[C@@H](O[C@H]3O[C@H](C)[C@@H](NC4C=C(CO)[C@@H](O[C@H]5O[C@H](CO)[C@@H](O[C@H]6O[C@H](C)[C@@H](NC7C=C(CO)[C@@H](O)[C@H](O)[C@H]7O)[C@H](O)[C@H]6O)[C@H](O)[C@H]5O)[C@H](O)[C@H]4O)[C@H](O)[C@H]3O)[C@H](O)[C@H]2O)[C@H](O)[C@H]1O (stereo partly shown) [Trestatin C],far from being satisfactory
4,N[C@H]1C=C(CO)[C@@H](O)[C@H](O)[C@H]1O [valienamine],possesses an action of suppressing the function of α-glucoside hydrolase
5,"N[C@H]1C[C@](O)(CO)[C@@H](O)[C@H](O)[C@H]1O [valiolamine, 1L(1S)-(1(OH),2,4,5/1,3)-5-amino-1-hydroxymethyl-1,2,3,4-cyclohexanetetraol]",possesses α-glucosidase inhibitory activity
6,C[C@H]1O[C@H](O[C@@H]2[C@H](O)[C@@H](O)[C@@H](O[C@@H]3[C@H](O)[C@@H](O)[C@@H](O[C@@H]4[C@H](O)[C@H](O)[C@@H](O[C@H]5O[C@H](CO)[C@H](O)[C@H](O)[C@H]5O)O[C@@H]4CO)O[C@@H]3CO)O[C@H]2CO)[C@@H](O)[C@@H](O)[C@@H]1N[C@@H]1C=C(CO)[C@@H](O)[C@@H](O)[C@@H]1O (stereo in doubt) [Trestatin B],far from being satisfactory
